Assay results published in patent US11987582B2, “Maleate salts of triazolopyrazine derivatives, compositions, methods of use, and processes of manufacturing the same” (ABION Inc, priority 2021, dated 2024).

What was measured:
[1] = test system: lung cancer cell line EBC-1; assay: cancer cell proliferation inhibitory experiment (SRB); type: cell-based, human
Experimental: The following exemplary experimental protocol was performed to test the activity of the maleate salt compounds described herein.
An RPMI 1640 cell culture medium, fetal bovine serum (FBS) and trypsin were purchased from GIBCO Co., Ltd. (Grand Island, N.Y.), and sodium hydrogencarbonate, amphotericin B and gentamycin were used as signamic medical products. In addition, reagents such as sulforhodamine (SRB) B, Trisma Base, and trichloroacetic acid (TCA), which were reagents used in a cytotoxicity measurement experiment, were purchased from Sigma Chemical Co., Ltd. For MTS analysis, a Celltiter 96 Aqueous Non-Radioactive Cell Proliferation Assay product was purchased from Promega Co., Ltd. Further, a T-25 culture container used for cell culture, a 96-well plate and other disposable glass used for cell culture were obtained from Folkon (Lincoln Park, N.J.) products.
A drug used in the experiment was diluted as an experimental medium to a desired concentration in the test, and the final dimethylsulfoxide concentration was 0.5% or less.
Cancer cell lines used in the experiment were human-derived cancer cell lines, and a lung cancer cell line EBC-1. RPMI 1640 medium with 10% fetal bovine serum (FBS) was used and cultured in an incubator of 37° C. and 5% CO2 and subcultured once by 3 to 4 days.
Specifically, after the culture with the compound of the present disclosure was terminated, the culture solution was removed, and a cold TCA solution added to each well. The cells were left at 4° C. for 1 hour to be fixed. The TCA solution was removed, and the cells were dried at room temperature, incubated with a solution obtained by dissolving 0.4% SRB in a 1% acetic acid solution, left at room temperature for 30 minutes, and then stained. Extra SRB which was not bound to the cells was washed with a 1% acetic acid solution, and the SRB was eluted by adding a […] tris buffer solution (trisma base; unbuffered) of pH 10.3 to 10.5 to the stained cells.

[2] = dynamic vapor sorption (DVS) analysis of hygroscopicity; type: physicochemical; conditions: humidity range below 80%, 25° C., in words
Experimental: Differential scanning calorimetry (DSC) analysis was performed to confirm the thermal stability of the novel salts provided in the present disclosure, and dynamic vapor sorption (DVS) analysis was performed to confirm the hygroscopicity.
The DVS analysis was performed to confirm the hygroscopicity of the salts by using a DVS-1 device, and was performed at a relative humidity of 40%, 95%, and 0% at 25° C. for 60 minutes.

[3] = pH-dependent solubility study; type: physicochemical
[4] = thermodynamic solubility in formulation vehicles (phosphate buffer pH 7.4 with excipients); type: physicochemical; conditions: for solubility at 24 h: pH 7.4, aqueous with cosolvent or surfactant or cyclodextrin, thermodynamic from solid
Experimental: In view of developing a formulation suitable for parenteral administration, the quantitative solubility of Chemical Formula land the Chemical Formula 2 were determined in phosphate buffer pH 7.4, supplemented with solubility-enhancing excipients. The target concentration is 1-1.3 mg/mL.
Based on the qualitative solubility result determined for the PBS formulation vehicle containing Transcutol (Gattefossé, France) and TPGS (tocopherol polyethylene glycol succinate), the quantitative solubility of the compound of Chemical Formula 1 and the compound of Chemical Formula 2 was determined in those vehicles to assess the maximum solubility in those vehicles. The thermodynamic solubility was then determined in PBS buffer containing Transcutol (50% and 10%) and TPGS (20% and 10%) and also in the formulation vehicles containing PEG 400 (50%, with and without presence of 2% DMSO). Suspensions of the compound of Chemical Formula 1 and the compound of Chemical Formula 2 were prepared in the selected vehicles with a compound of Chemical Formula 1 concentration of about 3.5-5 mg/mL. After incubation for 24 hours at room temperature, the solids and liquid phases were separated. The concentration of API in solution was determined by HPLC analysis. The results can be found in FIG. 6.

[5] = PK parameters in plasma after single administration; type: in vivo, Wistar rats; conditions: for AUC(0-inf) / AUC(0-t) / Cmax / Tmax: Wistar, rat, plasma
[6] = long-term stability study, chemical purity by HPLC; type: physicochemical; conditions: for chemical degradation: up to 15 months, in words
Experimental: The physical and chemical stability study was performed on the compounds of Chemical Formula 2 and Chemical Formula 1 (for reference purposes). The long-term stability study was conducted at defined temperatures and relative humidity levels (25° C./60% relative humidity (RH) and 40° C./75% RH). At regular intervals, a solid sample was analyzed by XRPD, TGMS and HPLC.
The results of the chemical purity determination for the compounds of Chemical Formula 1 and Chemical Formula 2 after 1-, 3- and 15-month exposure to 25° C./60% RH and 40° C./75% RH is presented in FIGS. 4 and 5.

CN1CCN(Cc2ccc(-c3cnc(N4CCOC(Cn5nnc6ncc(-c7cnn(C)c7)nc65)C4)nc3)cc2)CC1.O=C(O)/C=C\C(=O)O (stereo not drawn) [Chemical Formula 2]
GI50 ([1]; Homo sapiens, EBC-1, EBC-1 cell line): 14.2 nM | activity in inhibiting cancer cell growth compared to the compound of Chemical Formula 1 ([1]; in words): improved activity in inhibiting cancer cell growth | mass loss due to change in humidity (DVS) [2]: very low | less soluble than the free base form ([3]; gastric pH (FIG. 7)): more than 50% | less soluble than the free base form ([3]; pH between 1 and 3): more than 75% | less soluble than the free base form ([3]; pH of about 1.2 in 0.05M gastric media): more than 75% | solubility at 24 h ([4]; PBS formulation vehicle with 50% Transcutol, PBS vehicle containing 50% Transcutol, 24 hours at room temperature): > 3500 µg/mL | solubility compared with Chemical Formula 1 ([4]; all the formulation vehicles tested, in words): higher than that of the compound of Chemical Formula 1 | solubility at 24 h ([4]; almost all vehicles, except for the vehicle with 10% Transcutol): > 1300 µg/mL | AUClast/Dose ([5]; 5 mg/kg IV): 1630 kg·nM·h/mg | AUC∞/Dose ([5]; 5 mg/kg IV): 1655 kg·nM·h/mg | Cl ([5]; 5 mg/kg IV): 0.000606 mg/h/nM/kg | Vss ([5]; 5 mg/kg IV): 0.00271 mg/nM/kg | Vz ([5]; 5 mg/kg IV): 0.00259 mg/nM/kg | AUClast/Dose ([5]; 5 mg/kg PO): 347 kg·nM·h/mg | AUC∞/Dose ([5]; 5 mg/kg PO): 355 kg·nM·h/mg | F ([5]; 5 mg/kg PO): 21.4% | AUClast/Dose ([5]; 20 mg/kg PO): 341 kg·nM·h/mg | AUC∞/Dose ([5]; 20 mg/kg PO): 346 kg·nM·h/mg | F ([5]; 20 mg/kg PO): 20.9% | AUC(0-inf) ([5]; 5 mg/kg IV): 8.27 µM·h | AUC(0-t) ([5]; 5 mg/kg IV): 8.13 µM·h | AUC(0-inf) ([5]; 5 mg/kg PO): 1.77 µM·h | AUC(0-t) ([5]; 5 mg/kg PO): 1.73 µM·h | Cmax ([5]; 5 mg/kg PO): 246 nM | Tmax ([5]; 5 mg/kg PO): 2 to 4 h | AUC(0-inf) ([5]; 20 mg/kg PO): 6.93 µM·h | AUC(0-t) ([5]; 20 mg/kg PO): 6.82 µM·h | Cmax ([5]; 20 mg/kg PO): 676 nM | Tmax ([5]; 20 mg/kg PO): 2 to 4 h | chemical purity greater than the free base form ([6]; 15 months at 40° C. and 75% relative humidity): at least 4.7% | chemical degradation ([6]; 25° C./60% RH): did not show significant chemical degradation | chemical degradation ([6]; 40° C./75% RH): remained chemically stable up to 15 months
